Laboratory results published in patent US6664224B2, “Quaternary ammonium salt and process for the preparation thereof” (priority 2000, dated 2003).
Like-named read-outs stand apart in the source and are kept apart here.

Columns and labels:
[1] = test system: Escherichia coli K12 W 3110; assay: Minimum development inhibiting concentration (MIC) against bacteria, broth dilution method; assay type: cell-based; settings: for MIC Escherichia coli K12 W 3110: 37° C. 24 hours; for MIC: Escherichia coli, K12W3110, 37° C. 24 hours
Protocol: A bacteria solution in stationary state which had been adjusted with a nutrient broth according to an ordinary broth dilution method such that the concentration of bacterial suspension reached 10^6 cell/ml was added to chemical solutions having concentrations which vary stepwise where it was then allowed to stand at a temperature of 37° C. for 24 hours for culture. The bacteria solution was then examined to see if the proliferation of bacteria occurred. Thus, MIC was determined.
Escherichia coli K12 W 3110 was used as a sample bacterium. Compounds obtained in Examples 1 to 9 and benzalkonium chloride prepared in Comparative Example 1 were used as test samples.
The compounds obtained in Examples 10 to 19 and benzalkonium chloride were determined for MIC value against Escherichia coli K12 W 3110 in the same manner as in Test Example 3.

[2] = test system: Bacillus substilis ATCC 6633; assay: Minimum bactericidal concentration (MBC) against bacteria; assay type: cell-based, Bacillus subtilis; settings: culture 37° C. 24 hours
Protocol: (§1) A bacteria solution in the initial stage of logarithmic productive phase which had been adjusted with a nutrient broth according to an ordinary sterilized water dilution method such that the concentration of bacterial suspension reached 10^6 cell/ml was brought into contact with chemical solutions having concentrations which vary stepwise at a temperature of 30° C. for 30 minutes, and then transplanted to a nutrient broth where it was then allowed to stand at a temperature of 37° C. for 24 hours for culture. The nutrient broth was then examined to see if the proliferation of bacteria occurred. Thus, MBC was determined.
(§2) Five kinds of gram-negative bacteria and four kinds of gram-positive bacteria were used as sample bacteria.
(§3) BAMP-6 (Example 12), BAMD-6,8 (Example 13), BAMT-6 (Example 17) and benzalkonium chloride (Comparative Example 1) were determined for MBC value against 5 kinds of gram-negative bacteria and 4 kinds of gram-positive bacteria in the same manner as in Test Example 1.

[3] = test system: Proteus rettgeri NIT 96; assay: as above; assay type: cell-based; settings: culture 37° C. 24 hours
Protocol: as §1, §2, §3

[4] = test system: Klebsiella pneumoniae ATCC 13883; assay: as above; assay type: cell-based; settings: culture 37° C. 24 hours
Protocol: as §1, §2, §3

[5] = test system: Escherichia coli K12 OUT 8401; assay: as above; assay type: cell-based; settings: culture 37° C. 24 hours
Protocol: as §1, §2, §3

[6] = test system: Staphylococcus aureus IFO 12732; assay: as above; assay type: cell-based; settings: culture 37° C. 24 hours
Protocol: as §1, §2, §3

[7] = test system: Bacillus cereus IFO 3001; assay: as above; assay type: cell-based; settings: culture 37° C. 24 hours
Protocol: as §1, §2, §3

[8] = test system: Escherichia coli K12 W 3110; assay: as above; assay type: cell-based; settings: culture 37° C. 24 hours
Protocol: as §1, §2, §3

[9] = test system: Pseudomonas aeruginosa ATCC 27583; assay: as above; assay type: cell-based; settings: culture 37° C. 24 hours
Protocol: as §1, §2, §3

[10] = test system: Bacillus subtilis IFO 3134; assay: as above; assay type: cell-based; settings: culture 37° C. 24 hours
Protocol: as §1, §2, §3

[11] = test system: Erythrocyte; assay: Minimum hemolytic activity concentration against erythrocyte; assay type: cell-based; settings: human erythrocyte, 37° C. 1 hour, O.D.540, 50% hemolysis
Protocol: Human blood was collected. The sample blood was then mixed with the equal amount of alsebar solution (glucose: 2.05 g; NaCl: 0.42 g; sodium citrate: 0.8 g; citric acid: 0.55 g; pH: 6.1). The mixture was then stored at a temperature of 4° C. Shortly before used for experiment, the alsebar stored blood was subjected to centrifugal separation. Thus, the supernatant liquid and the leukocyte layer on the erythrocyte were removed. To the erythrocyte was then added PBS in an amount of […] that of the erythrocyte to obtain a 50% erythrocyte. 10 μl of the 50% erythrocyte was then mixed with 990 μl of each of chemicals which had been diluted with PBS in amounts varying stepwise. The erythrocyte was acted upon by the chemical at a temperature of 37° C. for 1 hour. The mixture was then subjected to centrifugal separation. The supernatant liquid was collected for the measurement of the optical density at 540 nm (O.D.540). Separately, the foregoing procedure was followed except that no chemicals were used to prepare a 0% hemolytic control. The foregoing procedure was followed except that Milliq water was used instead of PBS to prepare a 100% hemolytic control. For the minimum hemolytic activity concentration of chemical, the minimum concentration at which the hemolytic concentration is […] was determined.

[12] = test system: Pseudomonas aeruginosa ATCC27583; assay: MIC by agar plate dilution method; assay type: cell-based; settings: P. aeruginosa, 37° C. 24 hours
Protocol: (§4) MIC value was determined by an agar plate dilution method according to the Law of Japanese Society of Chemotherapy. In some detail, a bacteria solution in stationary state which had been adjusted with a nutrient broth such that the concentration of bacterial suspension reached 10^6 cell/ml was added to agar culture media containing chemical solutions having concentrations which vary in two stages where it was then allowed to stand at a temperature of 37° C. for 24 hours for culture. The bacteria solution was then examined to see if the proliferation of bacteria occurred. Thus, MIC was determined.
(§5) The following three kinds of bacteria were used as sample bacteria:
Pseudomonas aeruginosa ATCC27583 (P. auruginosa); and […]

[13] = test system: Staphylococcus aureus IFO 12732; assay: MIC by agar plate dilution method; assay type: cell-based; settings: S. aureus, 37° C. 24 hours
Protocol: as §4, §5
Staphylococcus aureus IFO 12732 (S. aureus)

[14] = test system: Escherichia coli K12 W 3110; assay: MIC by agar plate dilution method; assay type: cell-based; settings: E. coli, 37° C. 24 hours
Protocol: as §4, §5
Escherichia coliK12 W 3110 (E. coli);

[15] = test system: Candida albicans ATCC10231; assay: Minimum development inhibiting concentration (MIC) against fungi; assay type: cell-based; settings: C. albicans; spore solution, 27° C. 1 week
Protocol: (§6) A sample fungus which had been pre-cultured was diluted with a wetting agent-containing sterilized water according to an ordinary broth dilution method to prepare a spore solution. 1 ml of the spore solution was then mixed with 1 ml of each of chemical solutions having concentrations which vary stepwise. The mixture was then cultured at a temperature of 27° C. in an incubator for 1 week. The culture was then examined for turbidity to see if the proliferation of fungus occurred. The minimum concentration at which no turbidity occurs was defined to be MIC.
(§7) Aspergillus niger IFO 6431 (A. niger) and Candida albicans ATCC10231 (C. albicans) were used as sample microorganisms.

[16] = test system: Aspergillus niger IFO 6431; assay: as above; assay type: cell-based; settings: A. niger; spore solution, 27° C. 1 week
Protocol: as §6, §7

## CCCCCCCC[N+](C)(CCCCCCCC)Cc1ccc(C[N+](C)(CCCCCCCC)CCCCCCCC)cc1.[Cl-].[Cl-] [Example 4BAMP-8C, 1,4-bis(N,N-dioctyl-N-methylammoniomethyl)phenylene dichloride]
[1]
  MIC Escherichia coli K12 W 3110: 1 ppm

## CCCCCC[N+](C)(CCCCCC)Cc1ccccc1C[N+](C)(CCCCCC)CCCCCC.[Cl-].[Cl-] [Example 2BAMP-6C, 1,2-bis(N,N-dihexyl-N-methylammoniomethyl)phenylene dichloride]
[1]
  MIC Escherichia coli K12 W 3110: 1 ppm

## CCCCCCCC[N+](C)(CCCC)Cc1ccc(C[N+](C)(CCCC)CCCCCCCC)cc1.[I-].[I-] (stereo not drawn) [4BAMP-4, 8I, 1,4-bis(N-butyl-N-octyl-N-methylammoniomethyl)phenylene diiodide]
[1]
  MIC Escherichia coli K12 W 3110: 2 ppm

## CCCCCCCC[N+](C)(CCCCCCCC)Cc1c(C)cc(C)c(C[N+](C)(CCCCCCCC)CCCCCCCC)c1C.[Cl-].[Cl-] [BAMT-8, 2,4-bis(N,N-dioctyl-N-methylammoniomethyl)-1,3,5-trimethylbenzene dichloride]
[1]
  MIC: 1 µg/mL

## CCCCCC[N+](C)(CCCCCC)Cc1c(C)cc(C)c(C[N+](C)(CCCCCC)CCCCCC)c1C.[Cl-].[Cl-] [BAMT-6, 2,4-bis(N,N-dihexyl-N-methylammoniomethyl)-1,3,5-trimethylbenzene dichloride]
[2]; ATCC6633, contact 30° C. 30 minutes, read-out: MBC
  MBC: < 2 µg/mL
[1]
  MIC: 1 µg/mL
[3]; Providencia rettgeri, NIT96, contact 30° C. 30 minutes, read-out: MBC
  MBC: < 2 µg/mL
[4]; ATCC13883, contact 30° C. 30 minutes, read-out: MBC
  MBC: < 2 µg/mL
[5]; K12OUT8401, contact 30° C. 30 minutes, read-out: MBC
  MBC: < 2 µg/mL
[6]; IFO12732, contact 30° C. 30 minutes, read-out: MBC
  MBC: < 2 µg/mL
[7]; IFO3001, contact 30° C. 30 minutes, read-out: MBC
  MBC: < 2 µg/mL
[8]; K12W3110, contact 30° C. 30 minutes, read-out: MBC
  MBC: 4 µg/mL
[9]; ATCC27583, contact 30° C. 30 minutes, read-out: MBC
  MBC: 4 µg/mL
[10]; IFO3134, contact 30° C. 30 minutes, read-out: MBC
  MBC: < 2 µg/mL
[11]
  Minimum hemolytic activity concentration Erythrocyte: 400 ppm

## CCCCCCCC[n+]1ccc(SCc2ccc(CSc3cc[n+](CCCCCCCC)cc3)cc2)cc1.[I-].[I-] [Example I-8, 4,4′-(p-xylyldithio)-bis(1-octylpyridinium iodide), reference compound]
[11]
  Minimum hemolytic activity concentration Erythrocyte: 50 ppm

## CCCC[N+](C)(CCCC)Cc1c(C)cc(C)c(C[N+](C)(CCCC)CCCC)c1C.[Cl-].[Cl-] [BAMT-4, 2,4-bis(N,N-dibutyl-N-methylammoniomethyl)-1,3,5-trimethylbenzene dichloride]
[1]
  MIC: 8 µg/mL

## 1,4-bis(N,N-butyl-N-methylammoniomethyl)-2,3,5,6-tetramethylphenylene dichloride [BAMD-4]
[1]
  MIC Escherichia coli K12 W 3110: 16 ppm

## CCCCCC[N+](C)(CCCCCC)Cc1cccc(C[N+](C)(CCCCCC)CCCCCC)c1.[Cl-].[Cl-] [Example 3BAMP-6C, 1,3-bis(N,N-dihexyl-N-methylammoniomethyl)phenylene dichloride]
[1]
  MIC Escherichia coli K12 W 3110: 1 ppm

## 1,4-bis(N-octyl-N-hexyl-N-methylammoniomethyl)-2,3,5,6-tetramethylphenylene dichloride [BAMD-6, 8]
[2]; contact 30° C. 30 minutes
  MBC: <2 ppm
[1]
  MIC Escherichia coli K12 W 3110: 1 ppm
[3]; contact 30° C. 30 minutes
  MBC: <2 ppm
[4]; contact 30° C. 30 minutes
  MBC: <2 ppm
[5]; contact 30° C. 30 minutes
  MBC: <2 ppm
[6]; contact 30° C. 30 minutes
  MBC: <2 ppm
[7]; contact 30° C. 30 minutes
  MBC: <2 ppm
[8]; contact 30° C. 30 minutes
  MBC: <2 ppm
[9]; contact 30° C. 30 minutes
  MBC: <2 ppm
[10]; contact 30° C. 30 minutes
  MBC: <2 ppm

## 1,4-bis(N,N-dioctyl-N-methylammoniomethyl)phenylene di-p-toluenesulfonate [Example 4BAMP-8S]
[1]
  MIC Escherichia coli K12 W 3110: 1 ppm

## 1,4-bis(N,N-dipentyl-N-methylammoniomethyl)phenylene di-p-tolyenesulfonate [Example 4BAMP-5S]
[1]
  MIC Escherichia coli K12 W 3110: 16 ppm
[11]
  Minimum hemolytic activity concentration Erythrocyte: 400 ppm

## CCCCCCCCCCCC[N+](C)(C)Cc1ccc(C[N+](C)(C)CCCCCCCCCCCC)cc1.[Cl-].[Cl-] [Example 4BADMP-12C, 1,4-bis(N-dodecyl-N,N-dimethylammoniomethyl)phenylene dichloride, reference compound]
[11]
  Minimum hemolytic activity concentration Erythrocyte: 12.5 ppm

## 1,4-bis(N-octyl-N-hexyl-N-methylammoniomethyl)phenylene dibromide [4BAMP-6, 8B]
[12]
  MIC: <2 ppm
[13]
  MIC: <2 ppm
[14]
  MIC: 8 ppm
[15]
  MIC: <2 ppm
[16]
  MIC: 8 ppm

## CCCCCCCC[N+](C)(CCCCCC)Cc1c(C)cc(C)c(C[N+](C)(CCCCCC)CCCCCCCC)c1C.[Cl-].[Cl-] (stereo not drawn) [BAMT-6, 8, 2,4-bis(N-octyl-N-hexyl-N-methylammoniomethyl)-1,3,5-trimethylbenzene dichloride]
[1]
  MIC: 1 µg/mL

## CCCCC[N+](C)(CCCCC)Cc1c(C)c(C)c(C[N+](C)(CCCCC)CCCCC)c(C)c1C.[Cl-].[Cl-] [BAMD-5, 1,4-bis(N,N-dipentyl-N-methylammoniomethyl)-2,3,5,6-tetramethylphenylene dichloride]
[1]
  MIC Escherichia coli K12 W 3110: 2 ppm
[11]
  Minimum hemolytic activity concentration Erythrocyte: 800 ppm

## 1,4-bis(N,N-dioctyl-N-methylammoniomethyl)-2,3,5,6-tetramethylphenylene dichloride [BAMD-8]
[1]
  MIC Escherichia coli K12 W 3110: 1 ppm

## CCCCCC[N+](C)(CCCC)Cc1ccc(C[N+](C)(CCCC)CCCCCC)cc1.[I-].[I-] (stereo not drawn) [4BAMP-4, 6I, 1,4-bis(N-butyl-N-hexyl-N-methylammoniomethyl)phenylene diiodide]
[1]
  MIC Escherichia coli K12 W 3110: 16 ppm

## CCCCC[N+](C)(CCCCC)Cc1c(C)cc(C)c(C[N+](C)(CCCCC)CCCCC)c1C.[Cl-].[Cl-] [BAMT-5, 2,4-bis(N,N-dipentyl-N-methylammoniomethyl)-1,3,5-trimethylbenzene dichloride]
[1]
  MIC: 2 µg/mL
[11]
  Minimum hemolytic activity concentration Erythrocyte: 800 ppm
